Test results reported in patent US20210023065A1, “AMPHIPHILIC THIOL COMPOUNDS AND USES THEREOF” (THE REGENTS OF THE UNIVERSITY OF CALIFORNIA, priority 2018, published 2021).

Tests used:
Type in all cases: cell-based
endogenous HRas = target: T1, endogenous HRas (Homo sapiens, UniProt P01112); experiment: Acyl resin-assisted capture detection of HRas palmitoylation in HeLa cells; settings: for depalmitoylation of HRas: HeLa cells, 20 min, 1 at 1.25 μmol/10^7 cells, same experiments with TCEP alone or compound 2
T1 construct: endogenous in cells; host or cells: HeLa
Experimental: HeLa cells were grown to confluency in 10 cm plates. Stock solutions of compounds were prepared in DMSO as before and diluted to the final indicated concentration in 5.5 mL of OptiMEM media before adding to cells. Cells were incubated at 37° C. for 20 min and then media removed and 3 mL of HBSS added to each plate. Cells were detached using a cell scraper, pelleted by centrifugation at 1,000 rcf for 5 min and the pellet processed using a CAPTUREome S-Palmitoylated Protein Kit (Badrilla, UK) according to the manufacturer's protocol. Samples were resolved by electrophoresis using 4-20% SDS-polyacrylamide gels (Bio-Rad) under denaturing and reducing conditions. Proteins were then electrotransferred to a PVDF membrane (Bio-Rad). The membrane was blocked with 3% BSA and then subjected to immunoblot analysis using Anti-GTPase HRAS antibody (ab97488) (Abcam), Calnexin Antibody (2433S) (Cell Signaling Technology), Gα(i) Antibody (5290S) (Cell Signaling Technology), SNAP25 Antibody (5308S) (Cell Signaling Technology), Flotillin-2 Antibody (3436S) (Cell Signaling Technology), CD44 Antibody (3570S) (Cell Signaling Technology), Lyric/Metadherin Antibody (14065S) (Cell Signaling Technology), Flotillin-1 Antibody (3253S) (Cell Signaling Technology) and secondary goat anti-rabbit IgG-HRP (sc-2030) (Santa Cruz Biotechnology) or goat anti-mouse IgG HRP (ThermoFisher). Chemiluminescent detection was performed by using SuperSignal West Pico PLUS chemiluminescent substrate (ThermoFisher) according to the manufacturer's instructions.
(§1) Assays were performed in 3 biological replicates. Each replicate involved the analysis of 4 to 5 conditions side-by-side. Western blots were analyzed using ImageJ^1. The intensity of the protein band in each cleaved bound fraction (palmitoylated protein fraction) was normalized to the intensity of the corresponding input fraction (total protein fraction). The values within individual S 4 replicates were normalized to the control or vehicle condition and reported as means±SD. An unpaired t test was performed to determine the significance between means.

GAP43 = target: T2, GAP43 (Homo sapiens, UniProt P17677); experiment: Acyl resin-assisted capture detection of GAP43 palmitoylation in INCL lymphoblasts; settings: 0.05 μmol/10^7 cells, 24 h
T2 construct: Western blot detection of endogenous GAP43 in acyl resin-assisted capture fractions; host or cells: INCL human lymphoblasts
T2 sequence (P17677 1-238): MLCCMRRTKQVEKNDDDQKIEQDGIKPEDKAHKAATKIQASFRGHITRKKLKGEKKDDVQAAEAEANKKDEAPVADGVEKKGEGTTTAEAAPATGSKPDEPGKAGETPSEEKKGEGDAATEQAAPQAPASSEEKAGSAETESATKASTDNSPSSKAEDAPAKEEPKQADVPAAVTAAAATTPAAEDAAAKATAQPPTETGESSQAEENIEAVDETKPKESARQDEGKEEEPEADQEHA
Experimental: INCL Lymphoblasts were adjusted to 1,000,000 cells/mL in 20 mL of OptiMem Media. Stock solutions of compounds were prepared in DMSO as before and diluted to the indicated final concentration in the cell suspension. […] Cells were pelleted by centrifugation at 1,000 rcf for 5 min and the pellet processed using a CAPTUREome S-Palmitoylated Protein Kit (Badrilla, UK) according to the manufacturer's protocol. Samples were resolved by electrophoresis using 4-20% SDS-polyacrylamide gels (Bio-Rad) under denaturing and reducing conditions. Proteins were then electrotransferred to a PVDF membrane (Bio-Rad). The membrane was blocked with 3% BSA and then subjected to immunoblot analysis using GAP-43 (B-5) Antibody (sc-17790) (Santa Cruz Biotechnology) and secondary antibody goat anti-mouse IgG HRP (ThermoFisher). Chemiluminescent detection was performed by using SuperSignal West Pico PLUS chemiluminescent substrate (ThermoFisher) according to the manufacturer's instructions.
as §1

EGFP-HRas = target: T3, EGFP-HRas (Homo sapiens, UniProt P01112); experiment: Live-cell imaging of EGFP-HRas localization in HeLa cells; settings: HeLa cells, 1.25 μmol/10^7 cells, 20 min
T3 construct: host or cells: HeLa
Experimental: Imaging was performed on an Axio Observer Z1 inverted microscope (Carl Zeiss Microscopy Gmb, Germany) with Yokogawa CSU-X1 spinning disk confocal unit using a 63×, 1.4 NA oil immersion or 20×, 0.8 NA objective to an ORCA-Flash4.0 V2 Digital CMOS camera (Hamamatsu, Japan). For live cell imaging, an incubation chamber with temperature and CO2 controllers (World Precision Instruments) was utilized. Fluorophores were excited with s diode laser (488 nm; 30 mW). Images were acquired using Zen Blue software (Carl Zeiss) and processed using Image J.^1
HeLa cells were plated at 40,000 cells/well in an 8-well Lab-Tek chamber slide (ThermoFisher) and allowed to adhere overnight. Cells were transfected with mEGFP-HRas or mEGFP-KRas4b using Lipofectamine 2000 (ThermoFisher) according to the manufacturer's protocol. 50 mM stocks of compounds 1 and 2 were prepared by dissolving the solid compound in DMSO containing 100 mM tris(2-S 3 carboxyethyl)phosphine hydrochloride (TCEP) as a preservative. From these stocks, a solution of 200 μM [1 or 2] (with 400 μM TCEP), or 400 μM TCEP was prepared in OptiMEM media. Before imaging, cells were exchanged into OptiMEM media. The diluted solutions were added to the indicated final concentration within individual wells of the chamber slide and cells imaged while maintaining 37° C., 5% CO2 in the incubation chamber. Images were acquired in 6 different locations across a minimum of 2 independent experiments. […] An unpaired t test was performed to determine the significance of the means before and after treatment.

T1 sequence (P01112 whole entry): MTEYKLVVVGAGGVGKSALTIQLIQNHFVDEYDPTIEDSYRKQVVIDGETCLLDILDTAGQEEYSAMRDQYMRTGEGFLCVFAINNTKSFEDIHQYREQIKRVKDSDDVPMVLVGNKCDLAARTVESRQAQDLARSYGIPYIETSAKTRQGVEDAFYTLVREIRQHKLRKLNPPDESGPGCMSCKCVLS
T3 sequence (P01112 1-186 limits assumed): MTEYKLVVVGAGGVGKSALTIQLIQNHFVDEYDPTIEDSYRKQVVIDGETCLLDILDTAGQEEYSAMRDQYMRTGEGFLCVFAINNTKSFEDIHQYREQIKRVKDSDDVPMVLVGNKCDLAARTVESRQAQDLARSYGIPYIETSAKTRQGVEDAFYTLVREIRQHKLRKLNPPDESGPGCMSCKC

| Structure (SMILES) | depalmitoylation of HRas by PB alone (endogenous HRas; HeLa cells treated with PB, without 1) | level of GAP43 palmitoylation (GAP43) | depalmitoylation of HRas (endogenous HRas) | EGFP-HRas localization at the plasma membrane (fluorescence) (EGFP-HRas) |
| --- | --- | --- | --- | --- |
| CCCCCCCCCC[C@@H]1C(=O)O[C@H]1CCc1ccc(OC)c(OC)c1 [PB, palmostatin B, reference compound] | no significant depalmitoylation |  |  |  |
| Cl.O=C(O)CCP(CCC(=O)O)CCC(=O)O [TCEP, tris(2-carboxyethyl)phosphine hydrochloride, reference compound] |  | did not result in a significant change | no significant depalmitoylation | no change in fluorescence localization |
| CCCCCCCCNC(=O)[C@@H](N)CO [compound 2, H2N-L-Ser-Oct, reference compound] |  | did not result in a significant change | no significant depalmitoylation | no change in fluorescence localization |
